In patent publication US4175081A, “5-Substituted thiadiazole ureas” (priority 1977, dated 1979):

What was measured:
Turnip (TP) [1] = experiment: Post-emergence herbicide test; assay type: in vivo, Brassica sp.; settings: Brassica rapa, post-emergence, 336 h, two weeks after treatment
Summary of the method: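 A greenhouse post-emergence herbicide test on turnip. Seeds were sown on the surface of potting soil in 3' plastic pots, lightly covered with screened soil and watered from below. Planting was timed so seedlings had 1 or 2 true leaves above the cotyledons at spraying, done in a hood with a fixed nozzle. Control or injury was scored by eye after two weeks.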

Turnip (TP) [2] = experiment: Pre-emergence herbicide test; assay type: in vivo, Brassica sp.; settings: Brassica rapa, pre-emergence, 336 h, two weeks after treatment
Summary of the method: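 In this pre-emergence greenhouse test, turnip was seeded on the surface of potting soil in 3' plastic pots, lightly covered with screened soil, and watered from below. One day later the pots were sprayed in a belt-fed spray hood. Watering continued only by sub-irrigation, and percent control was visually scored two weeks after treatment.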

Crabgrass (CG) [3] = experiment: Post-emergence herbicide test; assay type: in vivo, Digitaria sanquinalis; settings: Digitaria sanguinalis, post-emergence, 336 h, two weeks after treatment
Summary of the method: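 Crabgrass (Digitaria sanquinalis) was surface seeded individually in 3' plastic pots of potting soil, covered with screened soil, and watered by sub-irrigation in greenhouse trays. Planting was staggered so seedlings reached the target stage together. Post-emergence sprays were applied in a hood with a removable belt and fixed nozzle, and control was visually rated two weeks after treatment.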

Bean (BN) [4] = experiment: Pre-emergence herbicide test; assay type: in vivo, Phaseolus vulgaris var. Black Valentine; settings: Phaseolus vulgaris, 336 h, two weeks after treatment
Summary of the method: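 Visual injury/control ratings were taken two weeks post-spray on sub-irrigated Phaseolus vulgaris var. Black Valentine. Pots were sown a day before treatment. Pre-emergence spray delivered 8 lbs actual compound per acre (or 4 lbs/acre) at 38 gallons per acre.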

Cotton (CT) [5] = experiment: Post-emergence herbicide test; assay type: in vivo, Gossypium hirsutum var. DPL smooth leaf; settings: Gossypium hirsutum, post-emergence, 336 h, two weeks after treatment
Summary of the method: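 This greenhouse post-emergence test measured how well spray treatments controlled cotton. Seedlings of Gossypium hirsutum var. DPL smooth leaf, with expanded cotyledons and a first true leaf 1' in length, were sprayed with 50 ml formulations in a belt-fed spray hood. They were then returned to the greenhouse and watered only by sub-irrigation. Injury was scored visually as % control after two weeks.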

Amaranth pigweed (PW) = experiment: Pre-emergence herbicide test; assay type: in vivo, Amaranthus retroflexus; settings: 336 h, two weeks after treatment
Protocol: All crop and weed species were planted individually in 3' plastic pots containing potting soil. Four seeds each of corn, cotton, and snapbeans were seeded to a depth equal to the diameter of the seed. All other species were surface seeded and sprinkled with screened soil in an amount sufficient to cover the seed. Immediately after planting, all pots were watered by sub-irrigation in greenhouse trays. Pots for the pre-emergence phase were seeded one day before treatment.
Compounds were tested at rates of application equivalent to 8 lbs. of actual compound per acre in a spray volume of 38 gallons per acre. Spray hood constants required to deliver the above volume are as follows:
Formulations for spray applications were prepared in 50 ml volumes with the following three components:
Formulations for the 4 lbs/acre rate were prepared by adjusting the amount of active ingredient accordingly.
Spray applications were made in a hood containing a removable belt and fixed spray nozzle. For passage through the spray hood, one pot of each specie (pre-emergence phase) was placed on the rear half of the flat. Treatments were removed to the greenhouse after spraying. Watering during the observation period was done only by sub-irrigation.
Two weeks after treatment, pre- and post-emergence injury or control was visually rated, and the results were as shown in the following tables. Pre-emergence data are provided in TABLE III and post-emergence data are provided in TABLE IV, for compounds having the formula illustrated in TABLE I. Correspondingly, pre-emergence and post-emergence data, respectively, are set forth in TABLES V AND VI, for compounds having the formula illustrated in TABLE II.

Barnyard grass (BG) = experiment: Pre-emergence herbicide test; assay type: in vivo; settings: Echinochloa crus-galli, 336 h, two weeks after treatment
Summary of the method: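 Greenhouse pre-emergence spray test: pots seeded one day before treatment received compound at rates of 8 or 4 lb/acre (38 gal/acre). Visual injury/control scores for Echinochloa crus-galli taken at two weeks, with watering by sub-irrigation only.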

Cotton (CT) [6] = experiment: Pre-emergence herbicide test; assay type: in vivo, Gossypium hirsutum var. DPL smooth leaf; settings: Gossypium hirsutum, 336 h, two weeks after treatment
Summary of the method: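 Visual injury/control ratings were taken at two weeks post-spray. Pots seeded a day earlier received compound pre-emergence at 8 lbs/acre, or 4 lbs/acre, in a 38 gallon/acre spray volume, and were then held in the greenhouse, watered only from below.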

Johnson grass (JG) = experiment: Pre-emergence herbicide test; assay type: in vivo, Sorgum helepense; settings: Sorghum halepense, 336 h, two weeks after treatment
Summary of the method: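 Visual injury or control rating two weeks post-treatment, after pre-emergence spray of 8 or 4 lbs active per acre (38 gal/acre) onto pots sown the previous day. Greenhouse watering by sub-irrigation only.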

Corn (CN) = experiment: Pre-emergence herbicide test; assay type: in vivo; settings: Zea mays, 336 h, two weeks after treatment
Summary of the method: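 Visual injury/control ratings were made 2 weeks post-spray on corn pots seeded (4 seeds, seed-diameter depth) the day before treatment. Application was a belt-hood spray of 38 gal/acre delivering 8 lbs active per acre, with a 4 lbs/acre rate also formulated. Watering was by sub-irrigation throughout.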

Crabgrass (CG) [7] = experiment: Pre-emergence herbicide test; assay type: in vivo, Digitaria sanquinalis; settings: Digitaria sanguinalis, pre-emergence, 336 h, two weeks after treatment
Summary of the method: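 Crabgrass (Digitaria sanquinalis) was surface seeded in 3' plastic pots of potting soil, covered with screened soil, and watered by sub-irrigation in greenhouse trays. Pots were seeded one day before spraying in a hood with a moving belt and fixed nozzle. Plants stayed in the greenhouse on sub-irrigation, and pre-emergence control was rated visually two weeks after treatment.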

Bean (BN) [8] = experiment: Post-emergence herbicide test; assay type: in vivo, Phaseolus vulgaris var. Black Valentine; settings: Phaseolus vulgaris, post-emergence, 336 h, two weeks after treatment
Summary of the method: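 Bean seedlings (Phaseolus vulgaris var. Black Valentine) were grown in potting soil in 3' pots until the primary leaves expanded. They were then sprayed under a hood with a removable belt and fixed nozzle, using 50 ml formulations. Afterward they were returned to the greenhouse and watered only by sub-irrigation. Percent control was judged visually two weeks after treatment.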

Compound: CCS(=O)(=O)c1nnc(N(C)C(=O)NC)s1 [Example 91]
- pest or weed control at 560.425 g/ha (Turnip (TP) [1]; 0.5 lb/acre): 100%
- pest or weed control at 1120.85 g/ha (Turnip (TP) [1]; 1 lb/acre): 100%
- pest or weed control at 2241.7 g/ha (Turnip (TP) [1]; 2 lb/acre): 100%
- pest or weed control at 4483.4 g/ha (Turnip (TP) [1]; 4 lb/acre): 100%
- pest or weed control at 560.425 g/ha (Turnip (TP) [2]; 0.5 lb/acre): 60%
- pest or weed control at 1120.85 g/ha (Turnip (TP) [2]; 1 lb/acre): 60%
- pest or weed control at 2241.7 g/ha (Turnip (TP) [2]; 2 lb/acre): 90%
- pest or weed control at 4483.4 g/ha (Turnip (TP) [2]; 4 lb/acre): 100%
- pest or weed control at 560.425 g/ha (Crabgrass (CG) [3]; 0.5 lb/acre): 40%
- pest or weed control at 1120.85 g/ha (Crabgrass (CG) [3]; 1 lb/acre): 60%
- pest or weed control (Crabgrass (CG) [3]; 2 lb/acre): 70%
- pest or weed control at 4483.4 g/ha (Crabgrass (CG) [3]; 4 lb/acre): 100%
- pest or weed control at 560.425 g/ha (Bean (BN) [4]; 0.5 lb/acre): 10%
- pest or weed control at 1120.85 g/ha (Bean (BN) [4]; 1 lb/acre): 70%
- pest or weed control at 2241.7 g/ha (Bean (BN) [4]; 2 lb/acre): 70%
- pest or weed control at 4483.4 g/ha (Bean (BN) [4]; 4 lb/acre): 100%
- pest or weed control at 560.425 g/ha (Cotton (CT) [5]; 0.5 lb/acre): 100%
- pest or weed control at 1120.85 g/ha (Cotton (CT) [5]; 1 lb/acre): 100%
- pest or weed control at 2241.7 g/ha (Cotton (CT) [5]; 2 lb/acre): 100%
- pest or weed control at 4483.4 g/ha (Cotton (CT) [5]; 4 lb/acre): 100%
- pest or weed control at 560.425 g/ha (Amaranth pigweed (PW); 0.5 lb/acre): 40%
- pest or weed control at 1120.85 g/ha (Amaranth pigweed (PW); 1 lb/acre): 90%
- pest or weed control at 2241.7 g/ha (Amaranth pigweed (PW); 2 lb/acre): 100%
- pest or weed control at 4483.4 g/ha (Amaranth pigweed (PW); 4 lb/acre): 100%
- pest or weed control at 560.425 g/ha (Barnyard grass (BG); 0.5 lb/acre): 30%
- pest or weed control at 1120.85 g/ha (Barnyard grass (BG); 1 lb/acre): 60%
- pest or weed control at 2241.7 g/ha (Barnyard grass (BG); 2 lb/acre): 90%
- pest or weed control at 4483.4 g/ha (Barnyard grass (BG); 4 lb/acre): 100%
- pest or weed control at 560.425 g/ha (Cotton (CT) [6]; 0.5 lb/acre): 30%
- pest or weed control at 1120.85 g/ha (Cotton (CT) [6]; 1 lb/acre): 50%
- pest or weed control at 2241.7 g/ha (Cotton (CT) [6]; 2 lb/acre): 50%
- pest or weed control at 4483.4 g/ha (Cotton (CT) [6]; 4 lb/acre): 90%
- pest or weed control at 560.425 g/ha (Johnson grass (JG); 0.5 lb/acre): 50%
- pest or weed control at 1120.85 g/ha (Johnson grass (JG); 1 lb/acre): 50%
- pest or weed control at 2241.7 g/ha (Johnson grass (JG); 2 lb/acre): 60%
- pest or weed control at 4483.4 g/ha (Johnson grass (JG); 4 lb/acre): 100%
- pest or weed control at 560.425 g/ha (Corn (CN); 0.5 lb/acre): 10%
- pest or weed control at 1120.85 g/ha (Corn (CN); 1 lb/acre): 50%
- pest or weed control at 2241.7 g/ha (Corn (CN); 2 lb/acre): 50%
- pest or weed control at 4483.4 g/ha (Corn (CN); 4 lb/acre): 60%
- pest or weed control at 560.425 g/ha (Crabgrass (CG) [7]; 0.5 lb/acre): 80%
- pest or weed control at 1120.85 g/ha (Crabgrass (CG) [7]; 1 lb/acre): 90%
- pest or weed control at 2241.7 g/ha (Crabgrass (CG) [7]; 2 lb/acre): 90%
- pest or weed control at 4483.4 g/ha (Crabgrass (CG) [7]; 4 lb/acre): 100%
- pest or weed control at 560.425 g/ha (Bean (BN) [8]; 0.5 lb/acre): 100%
- pest or weed control at 1120.85 g/ha (Bean (BN) [8]; 1 lb/acre): 100%
- pest or weed control at 2241.7 g/ha (Bean (BN) [8]; 2 lb/acre): 100%
- pest or weed control at 4483.4 g/ha (Bean (BN) [8]; 4 lb/acre): 100%
